Measured values: patent publication US20070184554A1, “Biomarker of improved intestinal function” (NPS ALLELIX CORP., priority 2005, published 2007)

Key:
plasma citrulline = assay: Plasma citrulline levels in human Crohn's Disease patients treated with Teduglutide (randomized, double-blind, placebo-controlled clinical study); type: in vivo; settings: for Baseline plasma citrulline levels, mean: baseline (Dosing Day 1), subjects with moderately active CD; for 2-week plasma citrulline levels, mean: week 2; for 2-week plasma citrulline levels, mean / 4-week plasma citrulline levels, mean / 8-week plasma citrulline levels, mean: subcutaneous injection daily, CD subjects; for 4-week plasma citrulline levels, mean: week 4; for 8-week plasma citrulline levels, mean: week 8
Protocol: In a further experiment plasma citrulline levels in human patients treated with Teduglutide for the treatment of Crohn's Disease (CD) were determined. Subjects with moderately active CD were treated in a randomized, double-blind, placebo-controlled clinical study to assess the activity of 3 different doses of Teduglutide compared to placebo. The primary objective of the study was to assess the efficacy and the secondary objectives were to assess the safety and tolerability of the different doses of Teduglutide as compared to placebo. Following a screening visit to evaluate whether subjects met the inclusion/exclusion criteria, the study ran over a period of up to 12 weeks, including visits at baseline/Dosing Day 1, Weeks 2, 4, and 8, and one at the end of the follow-up period at Week 12. Teduglutide doses administered by subcutaneous injection were 0.05, 0.10 and 0.20 mg/kg on a daily basis for 8 weeks. The primary efficacy variable used was the percentage of subjects with a response, defined as a 100-point or greater reduction in the subject's CDAI score at dosing Week 8 from their baseline score or a CDAI score less than 150 at Week 8.

arrhythmia incidence = settings: CAST, cited from earlier work; for mortality in the drug treatment groups: fold greater
bone mineral density = settings: administration of fluoride, cited from earlier work

CC[C@H](C)[C@H](NC(=O)[C@H](Cc1ccccc1)NC(=O)[C@H](CC(=O)O)NC(=O)[C@H](CCCNC(=N)N)NC(=O)[C@H](C)NC(=O)[C@H](C)NC(=O)[C@H](CC(C)C)NC(=O)[C@H](CC(N)=O)NC(=O)[C@H](CC(=O)O)NC(=O)[C@H](CC(C)C)NC(=O)[C@@H](NC(=O)[C@@H](NC(=O)[C@H](CC(N)=O)NC(=O)[C@H](CCSC)NC(=O)[C@H](CCC(=O)O)NC(=O)[C@H](CC(=O)O)NC(=O)[C@H](CO)NC(=O)[C@H](Cc1ccccc1)NC(=O)[C@H](CO)NC(=O)CNC(=O)[C@H](CC(=O)O)NC(=O)CNC(=O)[C@@H](N)Cc1c[nH]cn1)[C@@H](C)O)[C@@H](C)CC)C(=O)N[C@@H](CC(N)=O)C(=O)N[C@@H](Cc1c[nH]c2ccccc12)C(=O)N[C@@H](CC(C)C)C(=O)N[C@H](C(=O)N[C@@H](CCC(N)=O)C(=O)N[C@H](C(=O)N[C@@H](CCCCN)C(=O)N[C@H](C(=O)N[C@H](C(=O)N[C@@H](CC(=O)O)C(=O)O)[C@@H](C)O)[C@@H](C)CC)[C@@H](C)O)[C@@H](C)CC [Teduglutide]
Baseline plasma citrulline levels, mean (plasma citrulline; 0.05 mg group): 21.6 µmol/L | Baseline plasma citrulline levels, mean (plasma citrulline; 0.10 mg group): 24.7 µmol/L | Baseline plasma citrulline levels, mean (plasma citrulline; 0.20 mg group): 24.5 µmol/L | mean citrulline level, change (plasma citrulline; from baseline to week 8, teduglutide-treated groups, placebo group remains the same): increases | 2-week plasma citrulline levels, mean (plasma citrulline; 0.05 mg group): 30.3 µmol/L | 2-week plasma citrulline levels, mean (plasma citrulline; 0.10 mg group): 36.9 µmol/L | 2-week plasma citrulline levels, mean (plasma citrulline; 0.20 mg group): 32.7 µmol/L | 4-week plasma citrulline levels, mean (plasma citrulline; 0.05 mg group): 34.5 µmol/L | 4-week plasma citrulline levels, mean (plasma citrulline; 0.10 mg group): 49.1 µmol/L | 4-week plasma citrulline levels, mean (plasma citrulline; 0.20 mg group): 38.8 µmol/L | 8-week plasma citrulline levels, mean (plasma citrulline; 0.05 mg group): 37.9 µmol/L | 8-week plasma citrulline levels, mean (plasma citrulline; 0.10 mg group): 46.0 µmol/L | 8-week plasma citrulline levels, mean (plasma citrulline; 0.20 mg group): 41.8 µmol/L

O=C(NCC1CCCCN1)c1cc(OCC(F)(F)F)ccc1OCC(F)(F)F (stereo not shown) [flecainide]
arrhythmia incidence (arrhythmia incidence): significant reduction | mortality in the drug treatment groups (arrhythmia incidence): 3 fold

F [fluoride]
fracture risk (bone mineral density; also weaker bone strength): increased fracture risk | bone mineral density (bone mineral density): significant increases

COc1ccc(C(=O)Nc2ccccc2CCC2CCCCN2C)cc1 (stereo not shown) [encainide]
arrhythmia incidence (arrhythmia incidence): significant reduction | mortality in the drug treatment groups (arrhythmia incidence): 3 fold
